Data from the OligoGym collection.
Several values for one entry are separate records, joined by “and”; a condition that tells them apart may be missing. Equal values may be shown once. After the bases stand the sugars from the 5' end (letter, count) and the backbone: PS all phosphorothioate, else s phosphorothioate and o phosphodiester by linkage. HELM strings list units from the 5' end as sugar, base in round brackets, then linkage (d deoxyribose, r ribose, m 2'-O-methyl, p phosphodiester). Methylation of C is not given here. [mop] = methoxypropylphosphonate linkage; [moe] = 2'-O-(2-methoxyethyl) (MOE); [cEt] = constrained ethyl (cEt); [sp] = phosphorothioate linkage; e = 2'-O-(2-methoxyethyl) (MOE); k = constrained ethyl (cEt); d = 2'-deoxy (DNA); m = 2'-O-methyl

Legend:
IRF5 = settings: ASO
HBV = settings: ASO

Row | Substance | target mRNA inhibition (IRF5; KARPAS-229, 4 µM) | further results
1 | GGGCACAGCGCAGGTT (sugars kkddddddddkekekk, PS) | 61% and 66% | target mRNA inhibition (IRF5; KARPAS-229, 0.44444 µM): 15%; target mRNA inhibition (IRF5; KARPAS-229, 1.33333 µM): 32%; target mRNA inhibition (IRF5; KARPAS-229, 12 µM): 76%
2 | GGGCACAGCGCCAGGTT (sugars kddddddddddkekekd, PS) | 37% and 62% | target mRNA inhibition (IRF5; KARPAS-229, 0.44444 µM): 23%; target mRNA inhibition (IRF5; KARPAS-229, 1.33333 µM): 40%; target mRNA inhibition (IRF5; KARPAS-229, 12 µM): 87%
3 | GGTCTGGCCCTTTTGG (sugars kekdddddddddeekk, PS) | 13% | 
4 | GGTCTGGCCCTTTTGG (sugars kkdddddddddkekek, PS) | 3% | 
5 | GGTCTGGCCCTTTTGG (sugars kkddddddddkekekk, PS) | 0% | 
6 | GGTCTGGCCCTTTTGG (sugars kkkddddddddkdkdk, PS) | 0% | 
7 | GGTCTTGACCTCCCGC (sugars kkkddddddddkdkdk, PS) | 4% | 
8 | GGTCTTGACCTCCCGC (sugars kkkddddddddkekek, PS) | 29% | 
9 | GGTCTTTGAGGTCTGG (sugars k2 d9 e3 k2, PS) | 74% and 69% | target mRNA inhibition (IRF5; KARPAS-229, 0.44444 µM): 22%; target mRNA inhibition (IRF5; KARPAS-229, 1.33333 µM): 58%; target mRNA inhibition (IRF5; KARPAS-229, 12 µM): 79%
10 | GGTCTTTGAGGTCTGG (sugars kkddddddddddkeke, PS) | 67% and 63% | target mRNA inhibition (IRF5; KARPAS-229, 0.44444 µM): 39%; target mRNA inhibition (IRF5; KARPAS-229, 1.33333 µM): 43%; target mRNA inhibition (IRF5; KARPAS-229, 12 µM): 72%
11 | GGTGTATTTCCCTGTC (sugars kddddddddddkekek, PS) | 0% | 
12 | GGTGTATTTCCCTGTC (sugars kekdddddddddeekk, PS) | 5% | 
13 | GGTGTATTTCCCTGTC (sugars kkdddddddddkekek, PS) | 26% | 
14 | GGTGTATTTCCCTGTC (sugars kkkddddddddkdkdk, PS) | 1% | 
15 | GGTGTATTTCCCTGTC (sugars kkkddddddddkekek, PS) | 0% | 
16 | GGTTCTTGGACTCTCA (sugars kddddddddddkekek, PS) | 9% | 
17 | GGTTCTTGGACTCTCA (sugars kdddddddddkekeke, PS) | 0% | 
18 | GGTTCTTGGACTCTCA (sugars kkkdddddddddkeke, PS) | 48% and 67% | target mRNA inhibition (IRF5; KARPAS-229, 0.44444 µM): 41%; target mRNA inhibition (IRF5; KARPAS-229, 1.33333 µM): 56%; target mRNA inhibition (IRF5; KARPAS-229, 12 µM): 81%
19 | GTCTAGTGTCATGGAA (sugars kkddddddddkekekk, PS) | 9% | 
20 | GTCTGGCCCTTTTGGA (sugars k2 d9 e3 k2, PS) | 0% | 
21 | GTCTGGCCCTTTTGGA (sugars k3 d9 k3 e1, PS) | 0% | 
22 | GTCTGGCCCTTTTGGA (sugars kkdddddddddkdkdk, PS) | 0% | 
23 | GTCTGGCCCTTTTGGA (sugars kkddddddddkekekk, PS) | 0% | 
24 | GTCTTGACCTCCCGCT (sugars kkdddddddddkdkdk, PS) | 46% | 
25 | GTCTTGACCTCCCGCT (sugars kkdddddddddkekek, PS) | 40% | 
26 | GTCTTGACCTCCCGCT (sugars kkkddddddddkekek, PS) | 23% | 

Row | Substance | target mRNA inhibition (IRF5; KARPAS-229, 4 µM) | further results
27 | GTCTTTGAGGTCTGGG (sugars kddddddddddkekek, PS) | 0% | 
28 | GTCTTTGAGGTCTGGG (sugars kdddddddddkekeke, PS) | 33% | 
29 | GTGAGTCTCAAACCAG (sugars kekdddddddddeekk, PS) | 22% | 
30 | GTGAGTCTCAAACCAG (sugars kkkddddddddkdkdk, PS) | 0% | 
31 | GTGAGTCTCAAACCAG (sugars kkkddddddddkekek, PS) | 0% | 
32 | GTGTATTTCCCTGTCT (sugars kkddddddddddkeke, PS) | 0% | 
33 | GTGTATTTCCCTGTCT (sugars kkddddddddkekekk, PS) | 0% | 
34 | GTTATCTCCGTCCTGG (sugars k3 d10 k3, PS) | 31% | 
35 | GTTCTTGGACTCTCAA (sugars k2 d9 e3 k2, PS) | 22% | 
36 | RNA1{[cEt](A)[sp].[moe](G)[sp].[cEt](C)[sp].d(G)[sp].d(A)[sp].d(A)[sp].d(G)[sp].d(T)[sp].d(G)[sp].d(C)[sp].d(A)[sp].[moe](C)[sp].[moe](A)[sp].[moe](C)[sp].[moe](G)[sp].[moe](G)}$$$$V2.0 |  | target mRNA inhibition (HBV; HepG2, 0.009375 µM): 37%; target mRNA inhibition (HBV; HepG2, 0.01875 µM): 39%; target mRNA inhibition (HBV; HepG2, 0.0375 µM): 59%; target mRNA inhibition (HBV; HepG2, 0.075 µM): 72%; target mRNA inhibition (HBV; HepG2, 0.15 µM): 86%; target mRNA inhibition (HBV; HepG2, 0.3 µM): 90%
37 | TACCCAATGCAACATC (sugars k3 d10 k3, PS) | 0% | 
38 | TAGGACGAGTTATGGG (sugars k3 d10 k3, PS) | 25% | 
39 | TATCTCCGTCCTGGCT (sugars kdddddddddkekeke, PS) | 0% | 
40 | TATCTCCGTCCTGGCT (sugars kkddddddddkekekk, PS) | 6% | 
41 | TATTTCTGCTCCAGGT (sugars k2 d8 e4 k2, PS) | 43% | 
42 | TATTTCTGCTCCAGGT (sugars kkddddddddddkeke, PS) | 49% and 71% | target mRNA inhibition (IRF5; KARPAS-229, 0.44444 µM): 40%; target mRNA inhibition (IRF5; KARPAS-229, 1.33333 µM): 53%; target mRNA inhibition (IRF5; KARPAS-229, 12 µM): 79%
43 | TATTTCTGCTCCAGGT (sugars kkdddddddddkdkdk, PS) | 27% | 
44 | TCACCACTGTGTACCC (sugars k2 d9 e3 k2, PS) | 0% | 
45 | TCATGAGTAATAGGAG (sugars k3 d10 k3, PS) | 11% | 
46 | TCATTTGCCTTCTGCA (sugars k3 d10 k3, PS) | 6% | 
47 | TCCAATTTTGCATTCC (sugars kkddddddddkekekk, PS) | 15% | 
48 | TCTGATATGATACCTA (sugars k3 d10 k3, PS) | 63% and 78% | target mRNA inhibition (IRF5; A-431, 0.00412 µM): 8%; target mRNA inhibition (IRF5; A-431, 0.01225 µM): 27%; target mRNA inhibition (IRF5; A-431, 0.03704 µM): 54%; target mRNA inhibition (IRF5; A-431, 0.11111 µM): 78%; target mRNA inhibition (IRF5; A-431, 0.33333 µM): 89%; target mRNA inhibition (IRF5; A-431, 1 µM): 92%; target mRNA inhibition (IRF5; KARPAS-229, 0.44444 µM): 59%; target mRNA inhibition (IRF5; KARPAS-229, 1.33333 µM): 68%; target mRNA inhibition (IRF5; KARPAS-229, 12 µM): 83%
49 | TCTGAUATGATACCTA (sugars k3 d2 m1 d7 k3, PS) |  | target mRNA inhibition (IRF5; A-431, 0.00412 µM): 0%; target mRNA inhibition (IRF5; A-431, 0.01225 µM): 12%; target mRNA inhibition (IRF5; A-431, 0.03704 µM): 35%; target mRNA inhibition (IRF5; A-431, 0.11111 µM): 58%; target mRNA inhibition (IRF5; A-431, 0.33333 µM): 79%; target mRNA inhibition (IRF5; A-431, 1 µM): 83%
50 | TCTTGACCTCCCGCTG (sugars kdddddddddkekeke, PS) | 40% | 
51 | TGAGTCATGGGCTGAG (sugars k3 d9 k3 e1, PS) | 11% | 
52 | TGAGTCATGGGCTGAG (sugars kkdddddddddkdkdk, PS) | 12% | 

Row | Substance | target mRNA inhibition (IRF5; KARPAS-229, 4 µM) | further results
53 | TGAGTCATGGGCTGAG (sugars kkkddddddddkdkdk, PS) | 3% | 
54 | TGAGTCTCAAACCAGG (sugars k2 d9 e3 k2, PS) | 0% | 
55 | TGAGTCTCAAACCAGG (sugars kkddddddddddkeke, PS) | 7% | 
56 | TGCACTGACACAGGCG (sugars k2 d9 e3 k2, PS) | 18% | 
57 | TGCACTGACACAGGCG (sugars kkdddddddddkekek, PS) | 0% | 
58 | TGCTCTAAACCATTCT (sugars k3 d10 k3, PS) | 0% | 
59 | TGTCACATCTCCACAT (sugars kdddddddddkekeke, PS) | 0% | 
60 | TGTCTAGTGTCATGGA (sugars k2 d9 e3 k2, linkages s3 [mop]1 s11) |  | target mRNA inhibition (IRF5; A-431, 0.00412 µM): 0%; target mRNA inhibition (IRF5; A-431, 0.01225 µM): 15%; target mRNA inhibition (IRF5; A-431, 0.03704 µM): 10%; target mRNA inhibition (IRF5; A-431, 0.11111 µM): 39%; target mRNA inhibition (IRF5; A-431, 0.33333 µM): 58%; target mRNA inhibition (IRF5; A-431, 1 µM): 75%
61 | TGTCTAGTGTCATGGA (sugars kkddddddddddkeke, PS) | 44% | 
62 | TGTCTAGTGTCATGGA (sugars kkddddddddkekekk, PS) | 10% | 
63 | TGTCTAGTGTCATGGA (sugars kkddkddddddeeekk, PS) |  | target mRNA inhibition (IRF5; A-431, 0.00412 µM): 0%; target mRNA inhibition (IRF5; A-431, 0.01225 µM): 0%; target mRNA inhibition (IRF5; A-431, 0.03704 µM): 9%; target mRNA inhibition (IRF5; A-431, 0.11111 µM): 17%; target mRNA inhibition (IRF5; A-431, 0.33333 µM): 13%; target mRNA inhibition (IRF5; A-431, 1 µM): 29%
64 | TGTCTAGTGTCATGGA (sugars kkdkdddddddeeekk, PS) |  | target mRNA inhibition (IRF5; A-431, 0.00412 µM): 0%; target mRNA inhibition (IRF5; A-431, 0.01225 µM): 5%; target mRNA inhibition (IRF5; A-431, 0.03704 µM): 6%; target mRNA inhibition (IRF5; A-431, 0.11111 µM): 24%; target mRNA inhibition (IRF5; A-431, 0.33333 µM): 23%; target mRNA inhibition (IRF5; A-431, 1 µM): 41%
65 | TGTCTAGTGTCATGGA (sugars kkkddddddddkekek, PS) | 57% | 
66 | TGTGACTGTATTACCT (sugars k3 d10 k3, PS) | 81% and 66% | target mRNA inhibition (IRF5; KARPAS-229, 0.44444 µM): 38%; target mRNA inhibition (IRF5; KARPAS-229, 1.33333 µM): 44%; target mRNA inhibition (IRF5; KARPAS-229, 12 µM): 78%
67 | TGTTGAATTTTGTGAC (sugars k3 d10 k3, PS) | 26% | 
68 | TTATCTCCGTCCTGGC (sugars kkddddddddddkeke, PS) | 0% | 
69 | TTATCTCCGTCCTGGC (sugars kkdddddddddkekek, PS) | 0% | 
70 | TTATCTCCGTCCTGGC (sugars kkddddddddkekekk, PS) | 0% | 
71 | TTATTTCTGCTCCAGG (sugars kkkdddddddddkeke, PS) | 43% | 
72 | TTATTTCTGCTCCAGG (sugars kkkddddddddkdkdk, PS) | 57% and 67% | target mRNA inhibition (IRF5; KARPAS-229, 0.44444 µM): 42%; target mRNA inhibition (IRF5; KARPAS-229, 1.33333 µM): 62%; target mRNA inhibition (IRF5; KARPAS-229, 12 µM): 79%
73 | TTCCAATTTTGCATTC (sugars k3 d10 k3, PS) | 39% | 
74 | TTCTTGGACTCTCAAG (sugars kddddddddddkekek, PS) | 0% | 
75 | TTCTTGGACTCTCAAG (sugars kdddddddddkekeke, PS) | 0% | 
76 | TTGTCTAGTGTCATGG (sugars k3 d9 k3 e1, PS) | 20% | 
77 | TTGTCTAGTGTCATGG (sugars kddddddddddkekek, PS) | 44% | 
78 | TTTGTGACTGTATTAC (sugars k3 d10 k3, PS) | 50% | 
